From US12060400B2, “Peptides for use in immunotherapy against cancers” (Immatics Biotechnologies GmbH, priority 2018, dated 2024)

Each substance was assayed on HLA-A*24 (assay: MHC binding assay: UV-ligand exchange with beta2m ELISA (peptide exchange yield)). Conditions: Table 11, binding to HLA-A*24, UV-ligand exchange.
Set-up: species or system human
In short: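 Peptide-MHC complexes generated by UV-induced exchange of a photocleavable ligand with the test peptide; exchange yield quantified by streptavidin-capture ELISA detecting β2m (HRP anti-β2m, TMB, A450). Samples diluted 100-fold, with refolded HLA-A*02:01/MLA-001 monomers (15-500 ng/ml) as standards.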

| Substance | Peptide exchange (MHC class I binding score, peptide exchange yield) |
| --- | --- |
| 166 (MMALWSLLHL; listed as Homo sapiens) [compound 166] | + (>10% = +) |
| 96 (SHIGVVLAF; listed as Homo sapiens) [compound 96] | ++ (>20% = ++) |
| 100 (KVWSDVTPLTF; listed as Homo sapiens) [compound 100] | +++ (>50 = +++) |
| 164 (MFQEMLQRL; listed as Homo sapiens) [compound 164] | + (>10% = +) |
| 13 (KYYIATMAL; listed as Homo sapiens) [compound 13] | +++ (>50 = +++) |
| 112 (LYPDSVFGRLF; listed as Homo sapiens) [compound 112] | ++++ (>75% = ++++) |
| 185 (LYICKVELM; listed as Homo sapiens) [compound 185] | ++++ (>75% = ++++) |
| 209 (DIYVTGGHLF; listed as Homo sapiens) [compound 209] | +++ (>50 = +++) |
| 75 (VYEHNHVSL; listed as Homo sapiens) [compound 75] | +++ (>50 = +++) |
| 338 (VYLTWLPGL; listed as Homo sapiens) [compound 338] | ++++ (>75% = ++++) |
| 386 (YQSRDYYNF; listed as Homo sapiens) [compound 386] | ++++ (>75% = ++++) |
| 48 (AWSPPATLFLF; listed as Homo sapiens) [compound 48] | ++++ (>75% = ++++) |
| 60 (RYSPVKDAW; listed as Homo sapiens) [compound 60] | ++++ (>75% = ++++) |
| 153 (AWSPPATLF; listed as Homo sapiens) [compound 153] | ++++ (>75% = ++++) |
| 382 (SYPKELMKF; listed as Homo sapiens) [compound 382] | ++++ (>75% = ++++) |
| 134 (IYSSQLPSF; listed as Homo sapiens) [compound 134] | ++++ (>75% = ++++) |
| 292 (KMFPKDFRF; listed as Homo sapiens) [compound 292] | ++ (>20% = ++) |
| 144 (LFDHGGTVFF; listed as Homo sapiens) [compound 144] | +++ (>50 = +++) |
| 296 (YQRPDLLLF; listed as Homo sapiens) [compound 296] | ++ (>20% = ++) |
| 355 (VYNNNSSRF; listed as Homo sapiens) [compound 355] | ++++ (>75% = ++++) |
| 244 (TYIDTRTVFL; listed as Homo sapiens) [compound 244] | ++++ (>75% = ++++) |
| 291 (YTRLVLQF; listed as Homo sapiens) [compound 291] | ++ (>20% = ++) |
| 120 (VYAFMNENF; listed as Homo sapiens) [compound 120] | ++++ (>75% = ++++) |

| Substance | Peptide exchange (MHC class I binding score, peptide exchange yield) |
| --- | --- |
| 146 (NYFLDPVTI; listed as Homo sapiens) [compound 146] | +++ (>50 = +++) |
| 215 (KASKITFHW; listed as Homo sapiens) [compound 215] | ++ (>20% = ++) |
| 6 (IVTFMNKTLGTF; listed as Homo sapiens) [compound 6] | + (>10% = +) |
| 229 (CAMPVAMEF; listed as Homo sapiens) [compound 229] | ++ (>20% = ++) |
| 227 (YLPNPSLNAF; listed as Homo sapiens) [compound 227] | ++ (>20% = ++) |
| 139 (AYAPRGSIYKF; listed as Homo sapiens) [compound 139] | ++++ (>75% = ++++) |
| 266 (TQIITFESF; listed as Homo sapiens) [compound 266] | ++ (>20% = ++) |
| 299 (FLPALYSLL; listed as Homo sapiens) [compound 299] | +++ (>50 = +++) |
| 288 (MGKGSISFLF; listed as Homo sapiens) [compound 288] | ++ (>20% = ++) |
| 359 (TQLPAPLRI; listed as Homo sapiens) [compound 359] | ++ (>20% = ++) |
| 189 (FYPDEDDFYF; listed as Homo sapiens) [compound 189] | +++ (>50 = +++) |
| 300 (LFALPDFIF; listed as Homo sapiens) [compound 300] | ++ (>20% = ++) |
| 247 (VHSYLGSPF; listed as Homo sapiens) [compound 247] | ++ (>20% = ++) |
| 21 (LYMRFVNTHF; listed as Homo sapiens) [compound 21] | ++ (>20% = ++) |
| 127 (FLPRAYYRW; listed as Homo sapiens) [compound 127] | ++ (>20% = ++) |
| 125 (LYYGSILYI; listed as Homo sapiens) [compound 125] | ++++ (>75% = ++++) |
| 360 (LYITKVTTI; listed as Homo sapiens) [compound 360] | ++++ (>75% = ++++) |
| 131 (MHRTWRETF; listed as Homo sapiens) [compound 131] | ++ (>20% = ++) |
| 69 (KWFDSHIPRW; listed as Homo sapiens) [compound 69] | ++++ (>75% = ++++) |
| 219 (KVVSGFYYI; listed as Homo sapiens) [compound 219] | + (>10% = +) |
| 17 (IYPEAIATL; listed as Homo sapiens) [compound 17] | ++++ (>75% = ++++) |
| 31 (KQMQEFFGL; listed as Homo sapiens) [compound 31] | +++ (>50 = +++) |
| 25 (MLPEASLLI; listed as Homo sapiens) [compound 25] | ++++ (>75% = ++++) |

| Substance | Peptide exchange (MHC class I binding score, peptide exchange yield) |
| --- | --- |
| 151 (RRLWAYVTI; listed as Homo sapiens) [compound 151] | + (>10% = +) |
| 82 (SYLENSASW; listed as Homo sapiens) [compound 82] | ++++ (>75% = ++++) |
| 342 (MYGIVIRTI; listed as Homo sapiens) [compound 342] | ++++ (>75% = ++++) |
| 283 (SYIVDGKII; listed as Homo sapiens) [compound 283] | + (>10% = +) |
| 201 (VFPSVDVSF; listed as Homo sapiens) [compound 201] | ++++ (>75% = ++++) |
| 72 (RWLDGSPVTL; listed as Homo sapiens) [compound 72] | ++++ (>75% = ++++) |
| 367 (HWSHITHLF; listed as Homo sapiens) [compound 367] | ++++ (>75% = ++++) |
| 128 (AFQNVISSF; listed as Homo sapiens) [compound 128] | ++++ (>75% = ++++) |
| 40 (NYPEGAAYEF; listed as Homo sapiens) [compound 40] | ++++ (>75% = ++++) |
| 371 (FRSWAVQTF; listed as Homo sapiens) [compound 371] | ++ (>20% = ++) |
| 183 (YQVAKGMEF; listed as Homo sapiens) [compound 183] | + (>10% = +) |
| 114 (KALMSAFYTF; listed as Homo sapiens) [compound 114] | +++ (>50 = +++) |
| 45 (YGQSKPWTF; listed as Homo sapiens) [compound 45] | ++ (>20% = ++) |
| 177 (KYLITTFSL; listed as Homo sapiens) [compound 177] | ++++ (>75% = ++++) |
| 33 (FYQPDLKYLSF; listed as Homo sapiens) [compound 33] | ++++ (>75% = ++++) |
| 240 (RVHANPLLI; listed as Homo sapiens) [compound 240] | + (>10% = +) |
| 184 (VYVRPRVF; listed as Homo sapiens) [compound 184] | ++ (>20% = ++) |
| 251 (DYLLSWLLF; listed as Homo sapiens) [compound 251] | ++++ (>75% = ++++) |
| 356 (YSLEHLTQF; listed as Homo sapiens) [compound 356] | ++ (>20% = ++) |
| 158 (SYLKDPMIV; listed as Homo sapiens) [compound 158] | +++ (>50 = +++) |
| 348 (RSWENIPVTF; listed as Homo sapiens) [compound 348] | ++ (>20% = ++) |
| 280 (TIYSLEMKMSF; listed as Homo sapiens) [compound 280] | ++ (>20% = ++) |
| 24 (KMLPEASLLI; listed as Homo sapiens) [compound 24] | ++ (>20% = ++) |
